Laboratory results reported in EPA's ToxValDB 9.5.
Several values for one entry are separate records, joined by “and”; a condition that tells them apart may be missing. Equal entries are not always repeated.

How the values were obtained:
Canidae = conditions: oral, M/F, Dog Other; for LEL / NOEL: chronic, diet
Rattus norvegicus [1] = conditions: oral, gavage
Mus musculus [2] = conditions: chronic, M/F; for LEL / NOEL: diet
Rattus norvegicus [3] = conditions: repeat dose other; oral
Rattus norvegicus [4] = conditions: oral, M/F
Rattus norvegicus [5] = conditions: M/F
Rattus norvegicus [6] = conditions: subchronic, duration: 13 weeks
Rattus norvegicus [7] = conditions: Hershberger; duration: 10 days; oral; gavage; Sprague-Dawley; active + Negative + Antiandrogenic + anti-androgenic + Delayed PPS and decreased AST wt at 375 / bw decreased 6-7% / increased liver wt in…
Mus musculus [8] = conditions: duration: 10 days, inhalation, CF1
Oryctolagus sp. = conditions: duration: 13 days, inhalation, New Zealand
Rattus norvegicus [9] = conditions: duration: 10 days, inhalation, Sprague-Dawley
Mus musculus [10] = conditions: developmental; duration: 9 days; inhalation; whole body; M/F; CF1; developmental
[11] = duration: 2 years, Increased mean blood sugar concentration + slight hypothermia
[12] = short-term, duration: 28 days, M, Sprague-Dawley, Clinical Observation: Respiratory rate decrease, Incomplete eyelid opening SalivationSpontaneous locomotion decrease + Body Weight Changes: …
[13] = short-term, duration: 28 days, M, Sprague-Dawley, Clinical Observation: Spontaneous locomotion decrease, Respiratory rate decrease, Salivation + Body Weight Changes: decrease + Food …
[14] = subchronic, mortality and body weight loss
[15] = inhalation, B6C3F1, suppurative inflammation of the nose
[16] = duration: 2 years, reduced body weight gain
[17] = duration: 6 months, liver and thyroid effects
[18] = duration: 1 years, increased serum cholesterol, alkaline phosphatase, and relative liver and kidney weight, and decreased alanine transaminase and adrenal …
[19] = duration: 20 months, oral, increased absolute liver weight and nonneoplastic lesions
[20] = duration: 2 years, oral, centrilobular hepatocytomegaly (males)
[21] = chronic, diet, liver cell polymorphism

Compound `Cc1ccc(N=CN(C)C=Nc2ccc(C)cc2C)c(C)c1` [Amitraz] has an LEL (Canidae; [11]) of 1 mg/kg-day and an NOEL (Canidae; [11]) of 0.25 mg/kg-day.

`ClC(Cl)Br` [Bromodichloromethane] showed an NOAEL (Rattus norvegicus [1]; [12]) of 40 mg/kg-day, an NOEL (Rattus norvegicus [1]; [12]) of less than 40 mg/kg-day and an NOAEL (Rattus norvegicus [1]; [13]) of 40 mg/kg-day. It also gave an NOEL (Rattus norvegicus [1]; [13]) of less than 40 mg/kg-day, an NOEL (Rattus norvegicus [1]; subchronic, duration: 13 weeks, M/F, Fischer 344, Deaths + Body Weight Changes: decrease + Histopathology: Liver/centrilobular-Degeneration Liver/bile duct -Hyperplasia Liver-Enlargement, …) of 38 mg/kg-day and an LOAEL (Mus musculus [2]; oral, gavage, renal cytomegaly) of 25 mg/kg-day.

`[O]=[Cr][O][Cr]=[O]` [Chromium(III) oxide] showed an NOAEL (Rattus norvegicus [3]) of 2740 mg/kg-day.

With `Clc1ccc2oc3c(Cl)c(Cl)c(Cl)c(Cl)c3c2c1` [Dibenzofuran, 1,2,3,4,8-pentachloro-] the NOAEL (Rattus norvegicus [3]) was 0.048 mg/kg-day.

`O=C(O)C(Cl)Cl` [Dichloroacetic acid] was tested, and the LOAEL (Canidae; subchronic, lesions in testes, cerebrum, cerebellum, and liver) was 12.5 mg/kg-day.

Compound `CCOC(C)=O` [Ethyl acetate] has an LOAEL (Rattus norvegicus [3]) of 360 mg/kg-day, an NOAEL (Rattus norvegicus [3]) of 90 mg/kg-day and an LOAEL (Rattus norvegicus [4]; [14]) of 3600 mg/kg-day. For the same compound, the NOEL (Rattus norvegicus [4]; [14]) was 900 mg/kg-day.

`ClC1=C(Cl)C(Cl)(Cl)C(Cl)=C1Cl` [Hexachlorocyclopentadiene] was tested, and the LOAEL (Mus musculus [2]; [15]) was 2.23 mg/m3, the NOAEL (Mus musculus [2]; [15]) was 0.56 mg/m3 and the LOAEL (Rattus norvegicus [5]; chronic, duration: 2 years, inhalation, Fischer 344, respiratory) was 0.112 mg/m3. It also gave an NOAEL (Rattus norvegicus [5]; chronic, duration: 14 weeks, inhalation, Sprague-Dawley, respiratory) of 2.23 mg/m3, an NOAEL (Rattus norvegicus [5]; subchronic, duration: 13 weeks, oral, gavage, Fischer 344, renal) of 19 mg/kg-day and an NOAEL (Rattus norvegicus [6]; inhalation, intermittent, Nasal cavity: Squamous metaplasia) of 1.67 mg/m3. The NOAEL (Rattus norvegicus [6]; oral, Forestomach: Lesions) was 7.1 mg/kg-day.

`C=CCOC(Cn1ccnc1)c1ccc(Cl)cc1Cl` (stereo not drawn) [Imazalil] showed an LEL (Canidae; [16]) of 5 mg/kg-day and an NOEL (Canidae; [16]) of 1.25 mg/kg-day.

`CNc1cnn(-c2cccc(C(F)(F)F)c2)c(=O)c1Cl` [Norflurazon] was tested, and the LEL (Canidae; [17]) was 10.2 mg/kg-day, the NOEL (Canidae; [17]) was 3.75 mg/kg-day and the LOEL (Rattus norvegicus [7]) was 375 mg/kg-day and 1000 mg/kg-day. The NOEL (Rattus norvegicus [7]) was 185 mg/kg-day and 300 mg/kg-day.

In the case of `CCCN(CCC)c1c([N+](=O)[O-])cc(S(N)(=O)=O)cc1[N+](=O)[O-]` [Oryzalin], the LEL (Canidae; [18]) is reported as 50 mg/kg-day and the NOEL (Canidae; [18]) is reported as 5 mg/kg-day.

`CCOc1cc(Oc2ccc(C(F)(F)F)cc2Cl)ccc1[N+](=O)[O-]` [Oxyfluorfen] showed an LEL (Mus musculus [2]; [19]) of 3 mg/kg-day and an NOEL (Mus musculus [2]; [19]) of 0.3 mg/kg-day.

`O=[Se](=O)([O-])[O-]` [Selenate] gave an LOAEL (Rattus norvegicus [3]) of 0.33 mg/kg-day and an NOAEL (Rattus norvegicus [3]) of 0.2 mg/kg-day.

With `COc1nc(C)nc(NC(=O)NS(=O)(=O)c2ccccc2OCCCl)n1` [Triasulfuron] the LEL (Mus musculus [2]; [20]) was 129 mg/kg-day and the NOEL (Mus musculus [2]; [20]) was 1.2 mg/kg-day.

In the case of `C=CCl` [Vinyl chloride], the NOAEL (Mus musculus [8]; developmental) is reported as 1280 mg/m3, the NOAEL (Mus musculus [8]; reproduction developmental, F) is reported as 128 mg/m3 and the NOAEL (Oryctolagus sp.; developmental) is reported as 6390 mg/m3. It also gave an NOAEL (Oryctolagus sp.; reproduction developmental, F) of less than 1280 mg/m3, an NOAEL (Rattus norvegicus [9]; developmental) of 6390 mg/m3 and an NOAEL (Rattus norvegicus [9]; reproduction developmental, F) of less than 1280 mg/m3. For the same compound, the LOAEL (Rattus norvegicus [3]) was 1.7 mg/kg-day, the NOAEL (Rattus norvegicus [3]) was 0.17 mg/kg-day and the LOAEL (Rattus norvegicus [4]; [21]) was 1.3 mg/kg-day. For the same compound, the NOAEL (Rattus norvegicus [4]; [21]) was 0.13 mg/kg-day, the NOAEL (Mus musculus [10]) was 128 mg/m3 and the NOAEL (Rattus norvegicus [5]; chronic, duration: 149 weeks, oral, diet, Wistar, hepatic) was 0.17 mg/kg-day.
